Like-named read-outs stand apart in the source and are kept apart here.
Legend:
D2 receptors = conditions: ref Clark et al., 1985; Burris et al., 2002; Tadori et al., 2005; cited from earlier work
[1] = target: T1, D2-like autoreceptors (rat brain striatal minces, [3H]-DA synthesis) (Rattus norvegicus, UniProt P61169); test: cell-based
[2] = target: T1, D2-like autoreceptors (rat brain striatal minces, [3H]-DA synthesis)

T1 sequence (P61169 1-415 isoform P61169-2): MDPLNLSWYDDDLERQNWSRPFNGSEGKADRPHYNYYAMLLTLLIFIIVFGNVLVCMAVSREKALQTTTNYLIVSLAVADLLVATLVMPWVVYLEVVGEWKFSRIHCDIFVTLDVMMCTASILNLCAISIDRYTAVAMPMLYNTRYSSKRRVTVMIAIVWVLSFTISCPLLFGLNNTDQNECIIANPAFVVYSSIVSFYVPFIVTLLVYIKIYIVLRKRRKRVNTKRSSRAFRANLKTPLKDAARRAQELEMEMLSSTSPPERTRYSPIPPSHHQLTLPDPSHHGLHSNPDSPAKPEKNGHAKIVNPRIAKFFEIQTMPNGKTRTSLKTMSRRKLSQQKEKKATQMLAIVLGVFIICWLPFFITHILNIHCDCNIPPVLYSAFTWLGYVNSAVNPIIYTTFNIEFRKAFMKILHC

SMILES | reported affinity for D2 receptors (D2 receptors) | Emax ([1]; read-out: Emax, inhibition of [3H]-dopamine synthesis, basal 2mM K+) [%] | Emax ([1]; read-out: Emax, inhibition of [3H]-dopamine synthesis, stimulated 15mM K+) [%] | Emax ([1]; read-out: maximal effect on DA synthesis, 2mM K+) [%] | Emax ([1]; read-out: maximal effect on DA synthesis, 15mM K+) [%] | blockade of QUIN decrease of DA synthesis by antagonist ([2]; 2mM K+, data not shown) | reversal of decrease in DA synthesis elicited by 1nM S-(-)-PPP ([2]; sulpiride 100nM) | blockade of effect of ARI 1 µM on DA synthesis ([2]; sulpiride 1 µM, 2mM K+) | blockade of inhibitory effect of ARI 10nM on DA synthesis ([2]; sulpiride 1 µM, 2mM K+)
CCCN1CCC[C@@H](c2cccc(O)c2)C1 [Preclamol (S-(-)-PPP), (-)-3-(3-hydroxyphenyl)-N-n-propylpiperidine] | high-nanomolar/low-micromolar range | 34 | 31 | -34 | -31 | – | – | – | –
CCN1CCC[C@H]1CNC(=O)c1cc(S(N)(=O)=O)ccc1OC [sulpiride, (S)-(-)-sulpiride] | – | – | – | – | – | totally blocked | completely reversed | partially blocked | fully eliminated
